Assay results taken from patent US9686984B2, “Macrocyclic picolinamides as fungicides” (DOW AGROSCIENCES LLC, priority 2014, dated 2017).
Where two headings read alike, the source gives them in different places.

Assays:
Assay type in all cases: in vivo
Zymoseptoria tritici = experiment: Leaf Blotch of Wheat (SEPTTR) disease control on wheat seedlings; conditions: for pest or weed control at 121.5 g/ha: Low Volume (121.5 g/H); for pest or weed control at 100 µg/mL: High Volume (100 ppm)
Method in brief: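 Compounds in acetone/water (1:9, 110 ppm Triton X-100) sprayed to run-off on Yuma wheat seedlings at first-leaf stage, with Septoria tritici spores inoculated before or after treatment. Plants held at 100% RH (dark then lighted dew chamber, 20° C), then in greenhouse at 20° C; % control from disease severity on 1st leaves versus untreated.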

Alternaria solani = experiment: Tomato Early Blight (ALTESO) disease control; conditions: 100 ppm, 1 Day Protectant
Method: Technical grades of materials were dissolved in acetone, which were then mixed with nine volumes of water containing 110 ppm Triton X-100. The fungicide solutions were applied onto wheat seedlings using an automated booth sprayer to run-off. All sprayed plants were allowed to air dry prior to further handling. All fungicides were evaluated using the aforementioned method for their activity vs. all target diseases, unless stated otherwise. Wheat leaf blotch and brown rust activity were also evaluated using track spray applications, in which case the fungicides were formulated as EC formulations, containing 0.1% Trycol 5941 in the spray solutions. Wheat plants (variety Yuma) were grown from seed in a greenhouse in 50% mineral soil/50% soil-less Metro mix until the first leaf was fully emerged, with 7-10 seedlings per pot. These plants were inoculated with an aqueous spore suspension of Septoria tritici either prior to or after fungicide treatments. After inoculation the plants were kept in 100% relative humidity (one day in a dark dew chamber followed by two to three days in a lighted dew chamber at 20° C.) to permit spores to germinate and infect the leaf. The plants were then transferred to a greenhouse set at 20° C. for disease to develop. When disease symptoms were fully expressed on the 1st leaves of untreated plants, infection levels were assessed on a scale of 0 to 100 percent disease severity. Percent disease control was calculated using the ratio of disease severity on treated plants relative to untreated plants. Example M: Evaluation of Fungicidal Activity: Tomato Early Blight (Alternaria solani; Bayer Code […]) Tomato plants (variety Outdoor Girl) were propagated in soil-less Metro mix, with each pot having one plant, and used when 12 to 14 days old. Test plants were inoculated with an aqueous spore suspension of Alternaria solani 24 hr after fungicide treatments. […]

Cercospora beticola = experiment: Leaf Spot of Sugar Beets (CERCBE) disease control; conditions: 100 ppm, 1 Day Protectant
Method: Technical grades of materials were dissolved in acetone, which were then mixed with nine volumes of water containing 110 ppm Triton X-100. The fungicide solutions were applied onto wheat seedlings using an automated booth sprayer to run-off. All sprayed plants were allowed to air dry prior to further handling. All fungicides were evaluated using the aforementioned method for their activity vs. all target diseases, unless stated otherwise. Wheat leaf blotch and brown rust activity were also evaluated using track spray applications, in which case the fungicides were formulated as EC formulations, containing 0.1% Trycol 5941 in the spray solutions. Wheat plants (variety Yuma) were grown from seed in a greenhouse in 50% mineral soil/50% soil-less Metro mix until the first leaf was fully emerged, with 7-10 seedlings per pot. These plants were inoculated with an aqueous spore suspension of Septoria tritici either prior to or after fungicide treatments. After inoculation the plants were kept in 100% relative humidity (one day in a dark dew chamber followed by two to three days in a lighted dew chamber at 20° C.) to permit spores to germinate and infect the leaf. The plants were then transferred to a greenhouse set at 20° C. for disease to develop. When disease symptoms were fully expressed on the 1st leaves of untreated plants, infection levels were assessed on a scale of 0 to 100 percent disease severity. Percent disease control was calculated using the ratio of disease severity on treated plants relative to untreated plants. Example G: Evaluation of Fungicidal Activity: Leaf Spot of Sugar Beets (Cercospora Beticola; Bayer Code CERCBE) Sugar beet plants (variety HH88) were grown in soil-less Metro mix and trimmed regularly to maintain a uniform plant size prior to test. Plants were inoculated with a spore suspension 24 hr after fungicide treatments. Inoculated plants were kept in a dew chamber at 22° C. for 48 hr then incubated in a greenhouse set at 24° C. under a clear plastic hood with bottom ventilation until disease symptoms were fully expressed. […]

Magnaporthe grisea = conditions: 100 ppm, 1 Day Protectant
[1] = 24 h, 1 Day Protectant, read-out: SEPTTR disease control, 1 DP
[2] = 72 h, 3 Day Curative, read-out: SEPTTR disease control, 3 DC

SMILES	pest or weed control at 121.5 g/ha (Zymoseptoria tritici; [1]) [%]	pest or weed control at 121.5 g/ha (Zymoseptoria tritici; [2]) [%]	ALTESO disease control, 1DP (Alternaria solani)	CERCBE disease control, 1DP (Cercospora beticola)	PYRIOR disease control, 1DP (Magnaporthe grisea)	pest or weed control at 100 µg/mL (Zymoseptoria tritici; [1]) [%]	pest or weed control at 100 µg/mL (Zymoseptoria tritici; [2]) [%]
CCCC[C@H]1OCC[C@H](NC(=O)c2nccc(OC)c2OC(C)=O)C(=O)O[C@@H](C)[C@@H]1Cc1ccccc1 [Compound 2]	> 70	> 70	B (≦70)	A (>70)	A (>70)	–	–
COc1ccnc(C(=O)N[C@H]2CCO[C@H](Cc3ccccc3)[C@@H](Cc3ccccc3)[C@H](C)OC2=O)c1OC(C)=O [Compound 3]	> 70	> 70	B (≦70)	A (>70)	A (>70)	–	–
CCC[C@H]1OCC[C@H](NC(=O)c2nccc(OC)c2OCOC(C)=O)C(=O)O[C@@H](C)[C@@H]1Cc1ccccc1 [Compound 17]	> 70	> 70	B (≦70)	A (>70)	A (>70)	> 70	> 70
